Experimental findings from patent US11759455B2, “Substituted 1H-imidazo[4,5-b]pyridin-2(3H)-ones and their use as GLUN2B receptor modulators” (JANSSEN PHARMACEUTICA NV, priority 2016, dated 2023) are described below.

Like-named read-outs stand apart in the source and are kept apart here.

For this assay, the target named is T1, human GluN1/GluN2B NMDA receptors (Homo sapiens, UniProt Q13224).
T1 construct: expressed in transfected cells
Kind of assay: Cell-based calcium flux (FLIPR) assay on cloned human NR1/NR2B ion channels expressed in mammalian cells (standard and HTS buffer variants).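 Further: stable Tet-On inducible cell line, Ca2+ influx triggered by glutamate at about EC40 plus 10 µM glycine, fluorescent dye read-out over 5 min, normalized to control wells.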

[1] abbreviates: standard assay buffer (0.5 mM MgCl2 dye loading; 137 mM NaCl, 4 mM KCl assay buffer), human GluN1/GluN2B cells, read-out: NR2B IC50 (μM) standard assay.
[2] abbreviates: standard assay buffer (0.5 mM MgCl2 in dye loading buffer; 137 mM NaCl, 4 mM KCl in assay buffer), human GluN1/GluN2B, read-out: NR2B IC50 (μM) standard assay.
The mark [3] stands for this setting: HTS assay buffer (1.5 mM MgCl2 in dye loading buffer; 150 mM NaCl, 3 mM KCl in assay buffer), human GluN1/GluN2B, read-out: NR2B IC50 (μM) HTS assay.

The IC50 is the concentration that gives 50% inhibition.

T1 sequence (Q13224 27-1484, other chains not shown): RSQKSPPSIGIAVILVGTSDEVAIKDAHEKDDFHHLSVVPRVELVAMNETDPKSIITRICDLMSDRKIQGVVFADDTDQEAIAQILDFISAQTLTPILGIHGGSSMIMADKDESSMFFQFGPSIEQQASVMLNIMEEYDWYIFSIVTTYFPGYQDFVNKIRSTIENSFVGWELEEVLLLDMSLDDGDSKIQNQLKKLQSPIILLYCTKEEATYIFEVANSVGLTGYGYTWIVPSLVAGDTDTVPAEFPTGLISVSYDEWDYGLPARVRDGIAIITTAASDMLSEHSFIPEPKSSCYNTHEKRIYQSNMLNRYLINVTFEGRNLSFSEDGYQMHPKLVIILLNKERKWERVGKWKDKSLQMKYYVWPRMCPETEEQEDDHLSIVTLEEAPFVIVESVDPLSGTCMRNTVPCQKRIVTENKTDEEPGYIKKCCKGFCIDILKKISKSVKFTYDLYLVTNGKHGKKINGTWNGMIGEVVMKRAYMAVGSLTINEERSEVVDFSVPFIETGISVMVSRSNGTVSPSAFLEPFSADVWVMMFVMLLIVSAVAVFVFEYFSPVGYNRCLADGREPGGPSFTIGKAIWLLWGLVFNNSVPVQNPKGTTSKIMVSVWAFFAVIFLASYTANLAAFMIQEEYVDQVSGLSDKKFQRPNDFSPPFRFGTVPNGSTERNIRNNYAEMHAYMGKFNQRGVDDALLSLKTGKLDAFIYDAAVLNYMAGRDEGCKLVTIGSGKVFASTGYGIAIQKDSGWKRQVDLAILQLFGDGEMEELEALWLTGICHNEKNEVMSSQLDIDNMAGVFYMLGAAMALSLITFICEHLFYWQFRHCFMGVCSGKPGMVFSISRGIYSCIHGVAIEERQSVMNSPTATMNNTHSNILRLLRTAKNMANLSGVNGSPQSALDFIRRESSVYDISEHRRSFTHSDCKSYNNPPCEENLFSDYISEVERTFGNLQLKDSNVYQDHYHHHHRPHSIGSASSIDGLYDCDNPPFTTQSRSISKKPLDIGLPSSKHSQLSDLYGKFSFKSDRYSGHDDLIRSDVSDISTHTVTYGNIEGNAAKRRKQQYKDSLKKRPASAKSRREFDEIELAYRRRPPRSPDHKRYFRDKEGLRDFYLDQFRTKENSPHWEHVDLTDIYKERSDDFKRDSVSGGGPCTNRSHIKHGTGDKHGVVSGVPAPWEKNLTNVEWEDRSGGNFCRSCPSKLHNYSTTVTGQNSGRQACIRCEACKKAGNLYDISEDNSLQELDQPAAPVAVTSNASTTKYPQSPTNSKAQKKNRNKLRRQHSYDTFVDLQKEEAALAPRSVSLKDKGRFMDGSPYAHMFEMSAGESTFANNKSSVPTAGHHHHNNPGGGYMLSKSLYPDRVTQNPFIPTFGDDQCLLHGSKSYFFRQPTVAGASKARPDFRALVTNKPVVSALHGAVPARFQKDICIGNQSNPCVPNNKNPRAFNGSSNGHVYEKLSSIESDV

As to `Cc1ncc(-c2cnc3c(c2)n(CC(=O)N(C)C)c(=O)n3C)s1` [Example 114, N,N-Dimethyl-2-[3-methyl-6-(2-methylthiazol-5-yl)-2-oxo-imidazo[4,5-b]pyridin-1-yl]acetamide], under setting [1], the IC50 is 11.7 µM. Consider `Cc1c(F)ccc(-c2cnc3c(c2)n(CC(=O)N2CC(F)(F)C2)c(=O)n3C)c1F` [Example 414, 1-[2-(3,3-Difluoroazetidin-1-yl)-2-oxo-ethyl]-6-(2,4-difluoro-3-methyl-phenyl)-3-methyl-imidazo[4,5-b]pyridin-2-one], for which the IC50 under setting [2] is 0.013 µM. On to `Cn1c(=O)n(Cc2csnn2)c2cc(-c3ccc(C(F)F)s3)cnc21` [Example 562, 6-[5-(Difluoromethyl)-2-thienyl]-3-methyl-1-(thiadiazol-4-ylmethyl)imidazo[4,5-b]pyridin-2-one], for which the IC50 under setting [2] came to 0.166 µM. `COc1ccc(-c2cnc3[nH]c(=O)n(Cc4cc(C)on4)c3c2)cc1C` [Example 515, 6-(4-Methoxy-3-methyl-phenyl)-1-[(5-methylisoxazol-3-yl)methyl]-3H-imidazo[4,5-b]pyridin-2-one]: the IC50 under setting [3] came to 0.156 µM.

In the case of `Cn1c(=O)n(Cc2cncnc2)c2cc(-c3cccc(F)c3)cnc21` [Example 54, 6-(3-Fluorophenyl)-3-methyl-1-(pyrimidin-5-ylmethyl)imidazo[4,5-b]pyridin-2-one], the IC50 under setting [1] was found to be 0.61 µM. Regarding `Cn1c(=O)n(Cc2cccnc2)c2cc(-c3ccc(F)c(Cl)c3)cnc21` [Example 355, 6-(3-Chloro-4-fluoro-phenyl)-3-methyl-1-(3-pyridylmethyl)imidazo[4,5-b]pyridin-2-one], under setting [2], the IC50 is 0.044 µM.

Turning to `Cn1c(=O)n(Cc2cncc(F)c2)c2cc(-c3ccc(F)c(F)c3)cnc21` [Example 343, 6-(3,4-Difluorophenyl)-1-[(5-fluoro-3-pyridyl)methyl]-3-methyl-imidazo[4,5-b]pyridin-2-one], the IC50 under setting [2] is 0.256 µM. Take `Cn1c(=O)n(CC(=O)N2CCC2)c2cc(-c3cc(C(F)F)cs3)cnc21` [Example 117, 1-[2-(Azetidin-1-yl)-2-oxo-ethyl]-6-[4-(difluoromethyl)-2-thienyl]-3-methyl-imidazo[4,5-b]pyridin-2-one]: under setting [1], the IC50 stood at 0.038 µM. Turning to `Cn1c(=O)n(Cc2cncc(Cl)c2)c2cc(-c3ccc(F)c(F)c3)cnc21` [Example 369, 1-[(5-Chloro-3-pyridyl)methyl]-6-(3,4-difluorophenyl)-3-methyl-imidazo[4,5-b]pyridin-2-one], the IC50 under setting [2] came out at 0.096 µM. Take `COc1ccc(-c2cnc3[nH]c(=O)n(Cc4cc(C)on4)c3c2)cc1F` [Example 519, 6-(3-Fluoro-4-methoxy-phenyl)-1-[(5-methylisoxazol-3-yl)methyl]-3H-imidazo[4,5-b]pyridin-2-one]: under setting [2], the 50% inhibitory concentration (IC50) is 0.139 µM. Still for that read-out and setting: to `Cn1c(=O)n(Cc2cccnc2)c2cc(-c3cc(F)c(F)c(F)c3)cnc21` [Example 353, 3-Methyl-1-(3-pyridylmethyl)-6-(3,4,5-trifluorophenyl)imidazo[4,5-b]pyridin-2-one] belongs 0.144 µM.

Regarding `COc1cc(F)ccc1-c1cnc2[nH]c(=O)n(CC(N)=O)c2c1` [Example 433, 2-[6-(4-Fluoro-2-methoxy-phenyl)-2-oxo-3H-imidazo[4,5-b]pyridin-1-yl]acetamide], the IC50 under setting [3] came out at 0.867 µM. Regarding `Cc1ccc(-c2cnc3c(c2)n(CC(=O)N(C)C)c(=O)n3C)s1` [Example 78, N,N-Dimethyl-2-[3-methyl-6-(5-methyl-2-thienyl)-2-oxo-imidazo[4,5-b]pyridin-1-yl]acetamide], under setting [1], the IC50 was 0.043 µM. For `Cn1c(=O)n(Cc2cccnn2)c2cc(-c3cccc(F)c3)cnc21` [Example 57, 6-(3-Fluorophenyl)-3-methyl-1-(pyridazin-3-ylmethyl)imidazo[4,5-b]pyridin-2-one], the IC50 under setting [1] was 0.2 µM. Consider `Cc1cncc(Cn2c(=O)[nH]c3ncc(-c4cccc(Cl)c4)cc32)c1` [Example 273, 6-(3-Chlorophenyl)-1-[(5-methyl-3-pyridyl)methyl]-3H-imidazo[4,5-b]pyridin-2-one], for which, under setting [1], the IC50 was 0.096 µM.

For `Cn1ccc(Cn2c(=O)[nH]c3ncc(-c4ccc(F)cc4F)cc32)n1` [Example 132, 6-(2,4-Difluorophenyl)-1-[(1-methylpyrazol-3-yl)methyl]-3H-imidazo[4,5-b]pyridin-2-one], the IC50 under setting [1] came to 6.76 µM. On to `Cn1c(=O)n(CC(=O)N2CCC2)c2cc(-c3cc(F)c(F)c(F)c3)cnc21` [Example 411, 1-[2-(Azetidin-1-yl)-2-oxo-ethyl]-3-methyl-6-(3,4,5-trifluorophenyl)imidazo[4,5-b]pyridin-2-one], for which the IC50 under setting [2] stood at 0.014 µM. `Cn1c(=O)n(Cc2cccnn2)c2cc(-c3ccc(F)s3)cnc21` [Example 85, 6-(5-Fluoro-2-thienyl)-3-methyl-1-(pyridazin-3-ylmethyl)imidazo[4,5-b]pyridin-2-one]: the IC50 under setting [1] amounted to 0.157 µM. With `Cn1c(=O)n(CC(=O)N2CCC2)c2cc(-c3cc(F)cc(F)c3)cnc21` [Example 412, 1-[2-(Azetidin-1-yl)-2-oxo-ethyl]-6-(3,5-difluorophenyl)-3-methyl-imidazo[4,5-b]pyridin-2-one], the IC50 under setting [2] stood at 0.027 µM. On to `CN(C)C(=O)Cn1c(=O)[nH]c2ncc(-c3ccc(C(F)(F)F)s3)cc21` [Example 26, N,N-Dimethyl-2-[2-oxo-6-(5-(trifluoromethyl)-2-thienyl]-3H-imidazo[4,5-b]pyridin-1-yl)acetamide], for which, under setting [1], the IC50 stood at 0.012 µM. For the compound `Cn1c(=O)n(CC(=O)NC2(C)COC2)c2cc(-c3cccc(C(F)(F)F)c3)cnc21` [Example 199, N-(3-Methyloxetan-3-yl)-2-[3-methyl-2-oxo-6-[3-(trifluoromethyl)phenyl]imidazo[4,5-b]pyridin-1-yl]acetamide], the IC50 under setting [1] is 2.66 µM. With `Cn1c(=O)n(CC(=O)N2CC(F)(F)C2)c2cc(-c3cccc(F)c3)cnc21` [Example 417, 1-[2-(3,3-Difluoroazetidin-1-yl)-2-oxo-ethyl]-6-(3-fluorophenyl)-3-methyl-imidazo[4,5-b]pyridin-2-one], the IC50 under setting [2] worked out at 0.031 µM. For `Cc1c(F)ccc(-c2cnc3c(c2)n(Cc2cccnn2)c(=O)n3C)c1F` [Example 67, 6-(2,4-Difluoro-3-methyl-phenyl)-3-methyl-1-(pyridazin-3-ylmethyl)imidazo[4,5-b]pyridin-2-one], the IC50 under setting [1] came to 0.009 µM. `Cn1c(=O)n(Cc2cncnc2)c2cc(-c3cccc(C(F)(F)F)c3)cnc21` [Example 247, 3-Methyl-1-(pyrimidin-5-ylmethyl)-6-[3-(trifluoromethyl)phenyl]imidazo[4,5-b]pyridin-2-one]: the IC50 under setting [1] was 0.133 µM.

In the case of `O=C(Cn1c(=O)[nH]c2ncc(-c3cccc(C(F)(F)F)c3)cc21)NC1COC1` [Example 192, N-(Oxetan-3-yl)-2-[2-oxo-6-[3-(trifluoromethyl)phenyl]-3H-imidazo[4,5-b]pyridin-1-yl]acetamide], the IC50 under setting [1] worked out at 0.052 µM. As to `Cc1cc(C)cc(-c2cnc3[nH]c(=O)n(Cc4ccccc4C#N)c3c2)c1` [Example 488, 2-[[6-(3,5-Dimethylphenyl)-2-oxo-3H-imidazo[4,5-b]pyridin-1-yl]methyl]benzonitrile], the IC50 under setting [3] stood at 4.95 µM. For `Cc1c(F)ccc(-c2cnc3[nH]c(=O)n(Cc4cncc(F)c4)c3c2)c1F` [Example 301, 6-(2,4-Difluoro-3-methyl-phenyl)-1-[(5-fluoro-3-pyridyl)methyl]-3H-imidazo[4,5-b]pyridin-2-one], under setting [1], the half-inhibitory concentration (IC50) turned out to be 0.045 µM. The same measure, in the same setting: to `O=C(Cn1c(=O)[nH]c2ncc(-c3cccc(C(F)(F)F)c3)cc21)C1CC1` [Example 239, 1-(2-Cyclopropyl-2-oxo-ethyl)-6-[3-(trifluoromethyl)phenyl]-3H-imidazo[4,5-b]pyridin-2-one] belongs 0.034 µM.

In the case of `Cn1c(=O)n(CC(=O)N2CC(F)(F)C2)c2cc(-c3cccc(C(F)(F)F)c3F)cnc21` [Example 415, 1-[2-(3,3-Difluoroazetidin-1-yl)-2-oxo-ethyl]-6-[2-fluoro-3-(trifluoromethyl)phenyl]-3-methyl-imidazo[4,5-b]pyridin-2-one], the IC50 under setting [2] was determined as 0.015 µM. As for `Cc1cc(-c2cnc3[nH]c(=O)n(Cc4cncc(F)c4)c3c2)ccc1F` [Example 299, 6-(4-Fluoro-3-methyl-phenyl)-1-[(5-fluoro-3-pyridyl)methyl]-3H-imidazo[4,5-b]pyridin-2-one], the half-maximal inhibitory concentration (IC50) under setting [1] stood at 0.019 µM.

For `Cn1cc(Cn2c(=O)n(C)c3ncc(-c4cccc(C(F)(F)F)c4)cc32)cn1` [Example 551, 3-Methyl-1-[(1-methylpyrazol-4-yl)methyl]-6-[3-(trifluoromethyl)phenyl]imidazo[4,5-b]pyridin-2-one], under setting [2], the IC50 was 0.19 µM. In the case of `O=c1[nH]c2ncc(-c3cc(F)cc(F)c3)cc2n1CCN1CCC1` [Example 159, 1-[2-(Azetidin-1-yl)ethyl]-6-(3,5-difluorophenyl)-3H-imidazo[4,5-b]pyridin-2-one], under setting [1], the IC50 turned out to be 0.211 µM. Consider `COCCNC(=O)Cn1c(=O)[nH]c2ncc(-c3cccc(C(F)(F)F)c3)cc21` [Example 442, N-(2-Methoxyethyl)-2-[2-oxo-6-[3-(trifluoromethyl)phenyl]-3H-imidazo[4,5-b]pyridin-1-yl]acetamide], for which the IC50 under setting [3] worked out at 0.197 µM. As to `Cc1ccncc1Cn1c(=O)[nH]c2ncc(-c3cccc(F)c3)cc21` [Example 276, 6-(3-Fluorophenyl)-1-[(4-methyl-3-pyridyl)methyl]-3H-imidazo[4,5-b]pyridin-2-one], the IC50 under setting [1] was determined as 0.034 µM. `O=c1[nH]c2ncc(-c3cccc(C(F)(F)F)c3)cc2n1CCN1CCCC1` [Example 146, 1-(2-Pyrrolidin-1-ylethyl)-6-[3-(trifluoromethyl)phenyl]-3H-imidazo[4,5-b]pyridin-2-one]: under setting [1], the IC50 was found to be 0.506 µM. For `Cc1cc(Cn2c(=O)n(C)c3ncc(-c4cccc(C(F)(F)F)c4)cc32)no1` [Example 74, 3-Methyl-1-[(5-methylisoxazol-3-yl)methyl]-6-[3-(trifluoromethyl)phenyl]imidazo[4,5-b]pyridin-2-one], the IC50 under setting [1] was 0.057 µM.
